Experiment: Dissociation constant against galectin-3 using competitive fluorescence polarization

| Compound | Kd [µM] |
| --- | --- |
| O=[N+]([O-])c1cccc(/C=N/O[C@@H]2OC(CO)C(O)[C@H](O)C2O)c1 (stereo partly specified) | 530 |
| Cc1ccc(O)c(/C=N/O[C@@H]2OC(CO)C(O)[C@H](O)C2O)c1 (stereo partly specified) | 2600 |
| OCC1O[C@@H](O/N=C/c2cccc(OC(F)(F)F)c2)C(O)[C@@H](O)C1O (stereo partly specified) | 2200 |
| OCC1O[C@@H](O/N=C/c2cccc3ccccc23)C(O)[C@@H](O)C1O (stereo partly specified) | 370 |
| OCC1O[C@@H](O/N=C/c2ccc(-c3ccccc3)cc2)C(O)[C@@H](O)C1O (stereo partly specified) | 6000 |
| OCC1O[C@@H](O/N=C/c2ccccc2O)C(O)[C@@H](O)C1O (stereo partly specified) | 1800 |
| OCC1O[C@@H](O/N=C/c2c[nH]c3ccccc23)C(O)[C@@H](O)C1O (stereo partly specified) | 330 |
| COc1ccc(/C=N/O[C@@H]2OC(CO)C(O)[C@H](O)C2O)c(O)c1 (stereo partly specified) | 1700 |
| OCC1O[C@@H](O/N=C/c2cccc(O)c2)C(O)[C@@H](O)C1O (stereo partly specified) | 1800 |
| OC[C@H]1O[C@@H](O/N=C/c2c[nH]c3ccccc23)[C@H](O)[C@@H](O)[C@H]1O | 220 |
| O=[N+]([O-])c1ccc(/C=N/O[C@@H]2OC(CO)C(O)[C@H](O)C2O)o1 (stereo partly specified) | 1600 |
| OCC1O[C@@H](O/N=C/c2ccoc2)C(O)[C@@H](O)C1O (stereo partly specified) | > 10000 |
| OCC1O[C@@H](O/N=C/CCl)C(O)[C@@H](O)C1O (stereo partly specified) | 5300 |
| NO[C@@H]1OC(CO)C(O)[C@H](O)C1O (stereo partly specified) | 5500 |
| CCn1c2ccccc2c2cc(/C=N/O[C@@H]3OC(CO)C(O)[C@H](O)C3O)ccc21 (stereo partly specified) | 2200 |
| OCC1O[C@@H](O/N=C/c2ccccc2-c2ccccc2)C(O)[C@@H](O)C1O (stereo partly specified) | 2900 |
| COc1cccc(/C=N/O[C@@H]2OC(CO)C(O)[C@H](O)C2O)c1O (stereo partly specified) | 1700 |
| C=NO[C@@H]1OC(CO)C(O)[C@H](O)C1O (stereo partly specified) | 8900 |
| O=[N+]([O-])c1ccc(/C=N/O[C@@H]2OC(CO)C(O)[C@H](O)C2O)cc1 (stereo partly specified) | 2200 |

| Compound | Kd [µM] |
| --- | --- |
| Cc1ccccc1/C=N/O[C@@H]1O[C@@H](CO)[C@H](O)[C@H](O)[C@@H]1O | 5700 |
| OCC1O[C@@H](O/N=C/c2ccc3ccccc3c2)C(O)[C@@H](O)C1O (stereo partly specified) | 2300 |
| CN(C)c1ccc(/C=N/O[C@@H]2OC(CO)C(O)[C@H](O)C2O)cc1 (stereo partly specified) | 9000 |
| OCC1O[C@@H](O/N=C/C2CCCCC2)C(O)[C@@H](O)C1O (stereo partly specified) | 4800 |
| OCC1O[C@@H](O/N=C\C2C[C@H]3C=CC2C3)C(O)[C@@H](O)C1O (stereo partly specified) | 4800 |
| OCC1O[C@@H](O/N=C/c2ccccc2OC(F)(F)F)C(O)[C@@H](O)C1O (stereo partly specified) | 3800 |
| OCC1O[C@@H](O/N=C/c2ccnc3ccccc23)C(O)[C@@H](O)C1O (stereo partly specified) | 620 |
| OCC1O[C@@H](O/N=C/c2ccc3ccccc3n2)C(O)[C@@H](O)C1O (stereo partly specified) | 1400 |
| OCC1O[C@@H](O/N=C/c2ccccc2)C(O)[C@@H](O)C1O (stereo partly specified) | 3500 |
| O=[N+]([O-])c1ccccc1/C=N/O[C@@H]1OC(CO)C(O)[C@H](O)C1O (stereo partly specified) | 9300 |
| OCC1O[C@@H](O/N=C/CCc2ccccc2)C(O)[C@@H](O)C1O (stereo partly specified) | > 10000 |
| OCC1O[C@@H](O/N=C/c2cc(O)ccc2O)C(O)[C@@H](O)C1O (stereo partly specified) | 780 |
| OCC1O[C@@H](O/N=C/Cc2ccccc2)C(O)[C@@H](O)C1O (stereo partly specified) | > 10000 |
| OCC1O[C@@H](O/N=C/c2cccnc2)C(O)[C@@H](O)C1O (stereo partly specified) | 3300 |
| CCC(/C=N/O[C@@H]1OC(CO)C(O)[C@H](O)C1O)CC (stereo partly specified) | 7300 |
| O=C[C@H](O)[C@@H](O)[C@@H](O)[C@H](O)CO [GALACTOSE] | 4000 |
| OC[C@H]1O[C@@H](O)[C@H](O)[C@@H](O)[C@H]1O [b-D-GALACTOSE] | 4400 |
| LACTOSE, ANHYDROUS | 220 |

Other lines, results leading:

| Kd [µM] | Compound |
| --- | --- |
| 3100 | OCC1O[C@@H](O/N=C/c2ccc(F)cc2)C(O)[C@@H](O)C1O (stereo partly specified) |
| 5700 | C/C=N/O[C@@H]1OC(CO)C(O)[C@H](O)C1O (stereo partly specified) |
| > 10000 | OCC1O[C@@H](O/N=C/c2ccccc2F)C(O)[C@@H](O)C1O (stereo partly specified) |
| 690 | OCC1O[C@@H](O/N=C/c2ccc(Br)cc2)C(O)[C@@H](O)C1O (stereo partly specified) |
| 4100 | CC(=O)Nc1ccc(/C=N/O[C@@H]2OC(CO)C(O)[C@H](O)C2O)cc1 (stereo partly specified) |
| 2900 | OCC1O[C@@H](O/N=C/c2cccc(-c3ccccc3)c2)C(O)[C@@H](O)C1O (stereo partly specified) |
| 4800 | OCC1O[C@@H](O/N=C/c2ccc(O)cc2)C(O)[C@@H](O)C1O (stereo partly specified) |
| > 10000 | OCC1O[C@@H](O/N=C/c2ccc(OCc3ccccc3)cc2)C(O)[C@@H](O)C1O (stereo partly specified) |
| 7200 | OCC1O[C@@H](O/N=C/C(c2ccccc2)c2ccccc2)C(O)[C@@H](O)C1O (stereo partly specified) |
| 550 | OCC1O[C@@H](O/N=C/c2ccc(O)c(O)c2)C(O)[C@@H](O)C1O (stereo partly specified) |
| 1800 | O=[N+]([O-])c1ccc(/C=N/O[C@@H]2OC(CO)C(O)[C@H](O)C2O)c([N+](=O)[O-])c1 (stereo partly specified) |
| 840 | OCC1O[C@@H](O/N=C/c2ccc(O)cc2O)C(O)[C@@H](O)C1O (stereo partly specified) |
| 4800 | CC(C)(C)c1ccc(/C=N/O[C@@H]2OC(CO)C(O)[C@H](O)C2O)cc1 (stereo partly specified) |
| 1650 | OCC1O[C@@H](O/N=C/c2cc(Br)ccc2O)C(O)[C@@H](O)C1O (stereo partly specified) |
| 1600 | OCC1O[C@@H](O/N=C/c2cccc(F)c2)C(O)[C@@H](O)C1O (stereo partly specified) |
| 2500 | OCC1O[C@@H](O/N=C/c2c3ccccc3cc3ccccc23)C(O)[C@@H](O)C1O (stereo partly specified) |
| 360 | O=[N+]([O-])c1ccc(O)c(/C=N/O[C@@H]2OC(CO)C(O)[C@H](O)C2O)c1 (stereo partly specified) |
| > 10000 | OCC1O[C@@H](O/N=C/c2ccncc2)C(O)[C@@H](O)C1O (stereo partly specified) |
| 6400 | OCC1O[C@@H](O/N=C/c2ccco2)C(O)[C@@H](O)C1O (stereo partly specified) |

— ChEMBL document CHEMBL1144386, “Synthesis of O-galactosyl aldoximes as potent LacNAc-mimetic galectin-3 inhibitors” (Bioorg Med Chem Lett, 2005)
